Assay results reported in patent publication US20170166555A1, “FUNCTIONALISED AND SUBSTITUTED INDOLES AS ANTI-CANCER AGENTS” (Novogen Limited, priority 2013, published 2017).

Experiments:
[1] = tested on: Tm5NM1-containing actin filaments in SK-N-SH neuroblastoma cells; experiment: Microfilament disruption assay, γ9d staining imaging and filament quantitation; format: cell-based; conditions: 0-40 μM, 24 h, FIG. 3
Description: (§1) FIG. 3: Imaging and quantitation of actin filaments in SK—N—SH neuroblastoma cells treated with compound (A) 4093 and (B) 4113. Cells were stained with γ9d (sheep polycolonal, 1:100) followed by 488-conjugated secondary (1:1000) and DAPI to visualize the Tm5NM1 containing filament bundles and the nucleus, respectively. Shown in the top panel is a representative grey scale immunofluorescent image from control (vehicle alone), 5 μM and 10 μM treated cells. […] The coloured lines indicate the detected actin filaments. Also shown is the quantitation of cell number, filament number/cell and filament number/cell area ([…]). […]
(§2) The ability of compounds 4093 and 4113 to disrupt the total actin cytoskeleton (FIG. 2) and to specifically target Tm5NM1-containing actin filaments (FIG. 3) was assessed in vitro using the microfilament disruption assay.
(§3) Briefly, SK-N-SH neuroblastoma cells were seeded at 1800 cells/well in a 384 Perkin Elmer High Content Imaging “View” plate and left to plate down 24 h prior to treatment. […] Images were then exported and changes in the organization and numbers of actin filaments within the cell were quantitated using a linear feature detection algorithm developed by the CSIRO. […] It is these “ridge lines” that correspond to actin filament bundles and allow us to quantitate the number of filaments per cell.

[2] = tested on: glioblastoma (U251) cells; experiment: Cell viability, CellTiter 96 AQueous, 72 hours; format: cell-based; conditions: Homo sapiens, U-251
Description: (§4) The anti-proliferative activity of compound 4093 against ovarian cancer (SKOV3) and glioblastoma (U251) cells was also evaluated (Table 6). Briefly, cells were seeded at 2000 cells/well in a 96 well plate. 24 hrs post plating, each cell line was exposed to various concentrations of ATM-4093 (10, 5, 3,1, 0.7, 0.5, 0.3, 0.1 μM) for 72 hours. Cell viability was determined using CellTiter 96 AQueous (Promega) and absorbance measured at 490 nm on the SpectraMax M2 plate reader. Cell viability was normalized to control (vehicle alone) and dose-response curves, and half maximal effective concentration (EC50) values were determined using Graph Pad Prism 6 (nonlinear regression sigmoidal dose-response variable slope).

[3] = tested on: ovarian cancer (SKOV3) cells; experiment: Cell viability, CellTiter 96 AQueous, 72 hours; format: cell-based; conditions: Homo sapiens, SK-OV-3
Description: as §4

[4] = tested on: total actin cytoskeleton in SK-N-SH neuroblastoma cells; experiment: Microfilament disruption assay, 488-Atto-Phallodin imaging and filament quantitation; format: cell-based; conditions: 0-40 μM, 24 h, FIG. 2
Description: as §1, with “2:” for “3:”, “488-Atto-Phallodin” for “γ9d (sheep polycolonal, 1:100) followed by 488-conjugated secondary (1:1000)”, “actin” for “Tm5NM1 containing”
as §2, §3

[5] = tested on: melanoma (SK-Mel-28) cells; experiment: Cell viability assay (MTT, 48 hr); format: cell-based; conditions: Homo sapiens, 48 hr treatment, read-out: IC50 (μM) SKMEL28
Description: (§5) Cell viability assays were also conducted to assess the anti-proliferative effects of the anti-tropomyosin compounds 4001-4015. Briefly, cells (1×10^3/well) were plated (96-well) and treated (48 hr) with anti-tropomyosin drug and viability measured using 3-(4,5-dimethylthiazol-2-yl)-2,5-diphenylterazolium bromide MTT. Cell viability was normalized to control (vehicle alone) and dose-response curves, and half maximal effective concentration (EC50) values were determined using Graph Pad Prism 5 (nonlinear regression sigmoidal dose-response variable slope).

[6] = tested on: neuroblastoma (SH-EP) cells; experiment: Cell viability assay (MTT, 48 hr); format: cell-based; conditions: 48 hr treatment, read-out: IC50 (μM) SHEP
Description: as §5

A375 melanoma xenograft = A375 melanoma xenograft efficacy study; format: in vivo, Foxn-1 nu/nu athymic mice; conditions: hydrochloride salt, 20 mg/kg intravenously QD, 15 days
Description: FIG. 6: Tumor volumes ±SEM of animals treated with Control (Carbonate vehicle) or compound 4015 (20 mg/kg, I.V., QD).
(§6) In vivo efficacy studies for compound 4015 hydrochloride salt were conducted using an A375 melanoma xenograft model in Foxn-1 nu/nu athymic mice. The human melanoma cell line A375 (sourced from American Type Culture Collection (ATCC), USA) was used for developing the flank xenograft model. Briefly, five million cells were injected subcutaneously in the right flank region of the animal. When the tumors reached 130-150 mm^3 the animals were randomized into two groups, each group with 8 animals in them, so that the average tumor volume of all the groups was same.
(§7) First group received vehicle (sodium bicarbonate buffer) intravenously once a day (QD). The second group received compound 4015 at 20 mg/kg, intravenously (QD) (Table 7). The volume of dosing to each animal was calculated and adjusted every day based on individual body weight measured prior to dosing.
(§8) Animals were treated from the day of randomization (Day 1) for 15 days. Body weight and tumor dimensions (length and diameter) were measured three times in a week including the termination day of the study. Throughout the study period, mice were monitored daily for clinical condition.

[7] = Tolerance in the A375 xenograft study (body weight, clinical observations); format: in vivo; conditions: hydrochloride salt, 20 mg/kg intravenously QD, 15 days
Description: FIG. 5: Average body weight measurement ±SEM (grams) of animals in Control (Carbonate vehicle) and compound 4015 (20 mg/kg, I.V., QD) treated animals.
as §6, §7, §8

| IC50 [2] [µM] | IC50 [3] [µM] | Structure (SMILES) | Disruption of Tm5NM1-containing actin filaments [1] | Disruption of the total actin cytoskeleton [4] | IC50 [5] [µM] | IC50 [6] [µM] | Reduction in tumor growth compared to control (A375 melanoma xenograft) [%] | Tolerability (body weight and clinical observations) [7] |
| --- | --- | --- | --- | --- | --- | --- | --- | --- |
| 0.5 | 0.6 | Cc1c(C)n(CCCN(C)C)c2ccc(Oc3ccc(C(=O)Nc4ccc(F)cc4)cc3)cc12 [Compound 4093, 4-((1-(3-(dimethylamino)propyl)-2,3-dimethyl-1H-indol-5-yl)oxy)-N-(4-fluorophenyl)benzamide] | disrupt both the total actin cytoskeleton and Tm5NM1-containing actin filaments in a dose-dependent manner | disrupt both the total actin cytoskeleton and Tm5NM1-containing actin filaments in a dose-dependent manner | – | – | – | – |
| – | – | Cc1c(C)n(CCCN(C)C)c2ccc(CN3CCN(CCc4ccccc4)CC3)cc12 [Compound 4015, 3-(2,3-dimethyl-5-((4-phenethylpiperazin-1-yl)methyl)-1H-indol-1-yl)-N,N-dimethylpropan-1-amine] | – | – | 6.4 | 4.6 | 26 | well tolerated |
